Reference: patent publication US11912682B2, “Isoindolinone compounds” (Monte Rosa Therapeutics, Inc., priority 2021, dated 2024)
Like-named read-outs stand apart in the source and are kept apart here.

Legend:
GSPT1 = GSPT1 (Homo sapiens (Human), UniProt P15170+Q96SW2); test: immunofluorescence assay for GSPT1 degradation in CAL-51 cells (Example 4); format: cell-based
Protocol: The representative compounds were tested in an immunofluorescence assay for their activity to bind to degrade GSPT1. CAL-51 cells were purchased from DSMZ (cat. Number ACC302), sub-cultured in 90% Dulbecco's MEM (4.5 g/L glucose, Gibco 11965) +10% heat inactivated FBS (BioConcept, 2-01F136I) and incubated at 37° C., 5% CO2. For the assay, imaging microtiterplate Cell Carrier 96 Ultra (Perkin Elmer 6055302) were pre-coated with Fibronectin (Sigma F085, 30 μl at 0.2 μg/ml) in PBS (100 μl, Gibco 14190) for 45 min at room temperature, rinsed with PBS and CAL-51 cells (30 K cells/well) were plated and let to adhere overnight. Cells were treated with compounds typically using a serial dilution ranging from 30 μM to 0.1 nM for 6 hours. Compounds were stored at 10 mM DMSO stocks. Vehicle (DMSO), positive (CC-885, 10 μM) and rescue controls (positive control plus 0.2 μM bortezomib) were also included atthis stage. Cells were subsequently rinsed with PBS and fixed in 10% Formalin solution (50 μl, Sigma HT5011)) for 20 mins at room temperature. Following three consecutive PBS washes (100 μl), cells were permeabilized in 0.1% Triton X-100 in PBS (Sigma 93443, 50 μl) for 15 mins at room temperature. Following three further PBS washes, 50 μl blocking buffer (1% BSA, Sigma A4503, in PBS) was added for 45 min for signal-to-noise reduction.
Primary antibody (human GSPT1, Sigma HPA052488) was diluted in blocking buffer (dil.1/300, 35 μl/well) and incubated with the cells overnight at 4° C. After three PBS washes, Alexa-fluor 488 coupled secondary antibodies (Invitrogen, A32731, dil.1/1000), Alexa-fluor 647-Phalloidin (Invitrogen, A22287, dil.1/200) and DAPI (Thermo, #62248, dil.1/1000) were diluted in blocking buffer and incubated with the samples for 2 hours at room temperature. After three final PBS washes, samples were conserved in 100 μl PBS in the dark, until measurement. Image acquisition was performed on the Operetta High-Content Imager (Perkin-Elmer). Fluorescence intensity of Alexa-Fluor 488 (GSPT1), Alexa-Fluor 647 (Actin) and DAPI (Nucleus) were measured. For the determination of GSPT1 DC50 values, a custom algorithm implemented in the PerkinElmer image analysis software Harmony-Acapella® was developed. After user-defined setting of adjustment parameters, the analysis was run identically without human intervention for all image fields. DAPI staining of the nuclei was used to determine the location of cells using standard nuclei detection modules. Segmentation artifacts were removed by threshold-based filters for area, roundness and intensity. The outline of the cells was determined analogously from the sum of the normalized, smoothed DAPI and Actin channel, starting from each nucleus. The Alexa-Fluor 488 (GSPT1) signal intensity in each cell was finally measured, in order to obtain a Mean intensity per cell. GSPT1 degradation (DC50) was calculated after normalization to controls and data import in CDD vault Database, using non-linear regression.

[1] = biological target: Full length wild-type cereblon CRBN (Homo sapiens (Human), UniProt Q96SW2); test: fluorescence polarization (FP) assay, cereblon binding; settings: read-out: IC50 value
Description: Compound activity was monitored in a fluorescence polarization (FP) homogeneous assay using 1-[5-({2-[2-(2-{[2-(2,6-dioxopiperidin-3-yl)-1,3-dioxo-2,3-dihydro-1H-isoindol-4-yl]oxy}acetamido)ethoxy]ethyl}carbamoyl)pentyl]-3,3-dimethyl-2-[(1E,3E)-5-[(2E)-1,3,3-trimethyl-5-sulfo-2,3-dihydro-1H-indol-2-ylidene]penta-1,3-dien-1-yl]-3H-indol-1-ium-5-sulfonate as a fluorescent probe. Unless otherwise stated, all reagents were purchased from Sigma Aldrich. […] Full length wild-type cereblon CRBN (80.0 nM, 10 μL) was incubated in assay buffer containing 20 mM HEPES (pH 8.0), […], 0.5 mM TCEP and 0.05% Tween 20 in the presence or absence of compound (300 nL). Inhibitors were stored as 10 mM DMSO stocks in an inert environment (low humidity, dark, low oxygen, room temperature) using the Storage Pod System. […] Following incubation at room temperature for 30 min, the assay was initiated by dispensing the probe to a final concentration of 5 nM (2.5 nL of a 20 μM stock) using the Echo ESXX. […] The FP signal was subsequently normalized to the no-compound control (i.e., DMSO). Analysis and IC50 values were derived using Dotmatics (Dotmatics UK) software.

[2] = 6 hours, read-out: Activity for GSPT1 degradation, Code (DC50)
[3] = GSPT1 degradation, read-out: DC50 value

GSPT1, sequence (P15170 whole entry): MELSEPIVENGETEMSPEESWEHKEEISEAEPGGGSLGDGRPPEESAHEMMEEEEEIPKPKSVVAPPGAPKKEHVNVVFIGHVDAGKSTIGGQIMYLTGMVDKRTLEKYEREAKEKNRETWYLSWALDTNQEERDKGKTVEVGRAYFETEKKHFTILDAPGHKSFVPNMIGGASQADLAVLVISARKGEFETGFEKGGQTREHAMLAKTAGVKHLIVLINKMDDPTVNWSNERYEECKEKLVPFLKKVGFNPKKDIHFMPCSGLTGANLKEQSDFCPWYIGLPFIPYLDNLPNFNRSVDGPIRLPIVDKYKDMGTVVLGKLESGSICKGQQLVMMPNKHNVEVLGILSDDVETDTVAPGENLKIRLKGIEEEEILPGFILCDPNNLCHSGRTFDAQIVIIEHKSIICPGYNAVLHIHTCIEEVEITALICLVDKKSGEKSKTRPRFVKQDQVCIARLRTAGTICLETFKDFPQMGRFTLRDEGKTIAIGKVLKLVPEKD
GSPT1, sequence (Q96SW2 whole entry): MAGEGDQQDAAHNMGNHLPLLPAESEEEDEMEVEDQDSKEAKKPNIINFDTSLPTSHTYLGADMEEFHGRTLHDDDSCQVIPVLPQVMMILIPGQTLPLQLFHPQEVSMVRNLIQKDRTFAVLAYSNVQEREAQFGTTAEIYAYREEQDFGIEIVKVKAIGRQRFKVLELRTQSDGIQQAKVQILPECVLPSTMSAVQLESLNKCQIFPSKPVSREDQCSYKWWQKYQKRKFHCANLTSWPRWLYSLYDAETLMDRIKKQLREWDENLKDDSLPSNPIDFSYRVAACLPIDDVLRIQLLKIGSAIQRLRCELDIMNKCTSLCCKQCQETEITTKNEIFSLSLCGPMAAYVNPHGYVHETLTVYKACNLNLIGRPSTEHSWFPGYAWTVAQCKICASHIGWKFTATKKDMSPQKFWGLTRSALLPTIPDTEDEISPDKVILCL
GSPT1, sequence (Q16531 2-1140 partner): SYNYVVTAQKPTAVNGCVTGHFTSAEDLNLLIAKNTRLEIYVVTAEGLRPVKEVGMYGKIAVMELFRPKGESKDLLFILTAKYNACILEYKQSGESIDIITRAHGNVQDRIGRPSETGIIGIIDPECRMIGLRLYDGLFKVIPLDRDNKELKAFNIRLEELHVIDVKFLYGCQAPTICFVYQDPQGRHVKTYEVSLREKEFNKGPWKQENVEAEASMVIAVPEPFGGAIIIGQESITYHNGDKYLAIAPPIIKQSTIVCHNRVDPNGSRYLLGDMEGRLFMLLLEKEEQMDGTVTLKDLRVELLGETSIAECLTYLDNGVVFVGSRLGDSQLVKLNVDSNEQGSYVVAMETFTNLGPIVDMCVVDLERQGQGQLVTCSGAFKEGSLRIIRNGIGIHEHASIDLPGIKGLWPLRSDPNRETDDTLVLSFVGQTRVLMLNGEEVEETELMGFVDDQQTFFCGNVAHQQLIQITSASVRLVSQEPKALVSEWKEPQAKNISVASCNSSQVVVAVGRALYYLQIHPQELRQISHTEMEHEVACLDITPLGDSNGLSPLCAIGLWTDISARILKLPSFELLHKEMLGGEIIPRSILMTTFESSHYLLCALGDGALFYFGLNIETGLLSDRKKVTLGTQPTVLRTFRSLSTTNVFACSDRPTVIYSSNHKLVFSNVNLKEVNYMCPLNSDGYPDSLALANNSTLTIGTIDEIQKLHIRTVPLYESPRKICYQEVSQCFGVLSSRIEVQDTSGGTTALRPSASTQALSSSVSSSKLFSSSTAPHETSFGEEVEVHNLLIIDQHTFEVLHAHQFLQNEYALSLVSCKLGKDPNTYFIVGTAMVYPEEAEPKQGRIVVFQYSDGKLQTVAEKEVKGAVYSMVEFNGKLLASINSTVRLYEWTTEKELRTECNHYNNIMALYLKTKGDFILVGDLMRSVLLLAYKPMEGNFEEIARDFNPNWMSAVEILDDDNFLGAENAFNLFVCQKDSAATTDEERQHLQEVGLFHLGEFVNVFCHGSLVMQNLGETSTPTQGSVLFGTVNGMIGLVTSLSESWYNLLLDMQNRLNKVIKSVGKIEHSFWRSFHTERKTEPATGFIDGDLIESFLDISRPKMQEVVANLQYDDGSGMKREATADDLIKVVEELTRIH
Full length wild-type cereblon CRBN, sequence (Q96SW2 whole entry): as the sequence (Q96SW2 whole entry) above

Row | DC50 (GSPT1; [2]) | DC50 (GSPT1; [3]) | IC50 [1] | SMILES
1 | < 0.03 µM | ≤ 0.03 µM | – | COc1cc(NC(=O)OCc2ccc3c(c2)C(=O)N(C2CCC(=O)NC2=O)C3)cnc1-c1ccccc1 (stereo not drawn) [Compound 90]
2 | < 0.03 µM | ≤ 0.03 µM | – | O=C1CCC(N2Cc3ccc(COC(=O)Nc4cc(CN5CCOCC5)cc(OC(F)F)c4)cc3C2=O)C(=O)N1 (stereo not drawn) [Compound 95]
3 | < 0.03 µM | ≤ 0.03 µM | – | O=C1CCC(N2Cc3ccc(COC(=O)Nc4cc(OCCN5CCOCC5)cc(OC(F)F)c4)cc3C2=O)C(=O)N1 (stereo not drawn) [Compound 96]
4 | < 0.03 µM | ≤ 0.03 µM | – | O=C1CCC(N2Cc3ccc(COC(=O)Nc4ccc(C5(F)CC5)nc4)cc3C2=O)C(=O)N1 (stereo not drawn) [Compound 109, (2-(2,6-dioxopiperidin-3-yl)-3-oxoisoindolin-5-yl)methyl (6-(1-fluorocyclopropyl)pyridin-3-yl)carbamate]
5 | 0.03 to 0.3 µM | – | – | CC(C)(C)C12CC(NC(=O)OCc3ccc4c(c3)C(=O)N(C3CCC(=O)NC3=O)C4)(C1)C2 (stereo not drawn) [Compound 120, (2-(2,6-dioxopiperidin-3-yl)-3-oxoisoindolin-5-yl)methyl (3-(tert-butyl)bicyclo[1.1.1]pentan-1-yl)carbamate]
6 | > 0.3 µM | – | – | Cc1cc(C)c(NC(=O)OCc2ccc3c(c2)C(=O)N(C2CCC(=O)NC2=O)C3)cc1Cl (stereo not drawn) [Compound 123, (2-(2,6-dioxopiperidin-3-yl)-3-oxoisoindolin-5-yl) methyl (5-chloro-2,4-dimethylphenyl)carbamate]
7 | 0.03 to 0.3 µM | – | – | Cc1c(F)cc(NC(=O)OCc2ccc3c(c2)C(=O)N(C2CCC(=O)NC2=O)C3)cc1F (stereo not drawn) [Compound 127, (2-(2,6-dioxopiperidin-3-yl)-3-oxoisoindolin-5-yl)methyl (3,5-difluoro-4-methylphenyl)carbamate]
8 | 0.03 to 0.3 µM | – | – | CC(C)(C)c1ccc(NC(=O)OCc2ccc3c(c2)C(=O)N(C2CCC(=O)NC2=O)C3)nc1 (stereo not drawn) [Compound 131, (2-(2,6-dioxopiperidin-3-yl)-3-oxoisoindolin-5-yl)methyl (5-(tert-butyl)pyridin-2-yl)carbamate]
9 | 0.03 to 0.3 µM | – | – | Cc1ccc(NC(=O)OCc2ccc3c(c2)C(=O)N(C2CCC(=O)NC2=O)C3)cc1F (stereo not drawn) [Compound 133, (2-(2,6-dioxopiperidin-3-yl)-3-oxoisoindolin-5-yl)methyl (3-fluoro-4-methylphenyl)carbamate]
10 | > 0.3 µM | – | – | O=C1CCC(N2Cc3ccc(COC(=O)Nc4ccccc4)cc3C2=O)C(=O)N1 (stereo not drawn) [Compound 138, (2-(2,6-dioxopiperidin-3-yl)-3-oxoisoindolin-5-yl)methyl phenylcarbamate]
11 | 0.03 to 0.3 µM | – | – | Cc1cc(F)c(NC(=O)OCc2ccc3c(c2)C(=O)N(C2CCC(=O)NC2=O)C3)cc1Cl (stereo not drawn) [Compound 141, (2-(2,6-dioxopiperidin-3-yl)-3-oxoisoindolin-5-yl)methyl (5-chloro-2-fluoro-4-methylphenyl)carbamate]
12 | 0.03 to 0.3 µM | – | – | CC(C)(C)c1ccc(NC(=O)OCc2ccc3c(c2)C(=O)N(C2CCC(=O)NC2=O)C3)c(F)c1 (stereo not drawn) [Compound 142, (2-(2,6-dioxopiperidin-3-yl)-3-oxoisoindolin-5-yl)methyl (4-(tert-butyl)-2-fluorophenyl)carbamate]
13 | 0.03 to 0.3 µM | – | – | Cc1cc(Cl)cc(NC(=O)OCc2ccc3c(c2)C(=O)N(C2CCC(=O)NC2=O)C3)c1 (stereo not drawn) [Compound 144, (2-(2,6-dioxopiperidin-3-yl)-3-oxoisoindolin-5-yl)methyl (3-chloro-5-methylphenyl)carbamate]
14 | 0.03 to 0.3 µM | – | – | Cc1cc(F)cc(NC(=O)OCc2ccc3c(c2)C(=O)N(C2CCC(=O)NC2=O)C3)c1 (stereo not drawn) [Compound 146, (2-(2,6-dioxopiperidin-3-yl)-3-oxoisoindolin-5-yl)methyl (3-fluoro-5-methylphenyl) carbamate]
15 | > 0.3 µM | – | – | CCc1nscc1NC(=O)OCc1ccc2c(c1)C(=O)N(C1CCC(=O)NC1=O)C2 (stereo not drawn) [Compound 147]
16 | < 0.03 µM | ≤ 0.03 µM | – | CC(C)(C)c1cccc(NC(=O)OCc2ccc3c(c2)C(=O)N(C2CCC(=O)NC2=O)C3)c1 (stereo not drawn) [Compound 153, (2-(2,6-dioxopiperidin-3-yl)-3-oxoisoindolin-5-yl)methyl (3-(tert-butyl)phenyl)carbamate]

Further lines, the molecule ahead of its results:

Row | SMILES | DC50 (GSPT1; [2]) | DC50 (GSPT1; [3]) | IC50 [1]
17 | Cc1c(Cl)cc(NC(=O)OCc2ccc3c(c2)C(=O)N(C2CCC(=O)NC2=O)C3)cc1CN1CCOCC1 (stereo not drawn) [Compound 2] | < 0.03 µM | ≤ 0.03 µM | < 1.1 µM
18 | O=C1CCC(N2Cc3ccc(COC(=O)Nc4cc(CN5CCOCC5)cc(OC(F)(F)F)c4)cc3C2=O)C(=O)N1 (stereo not drawn) [Compound 4] | < 0.03 µM | ≤ 0.03 µM | < 1.1 µM
19 | O=C1CCC(N2Cc3ccc(COC(=O)Nc4cccc(OC(F)F)c4)cc3C2=O)C(=O)N1 (stereo not drawn) [Compound 5] | < 0.03 µM | ≤ 0.03 µM | –
20 | O=C1CCC(N2Cc3ccc(COC(=O)Nc4ccc(F)c(Cl)c4)cc3C2=O)C(=O)N1 (stereo not drawn) [Compound 9] | 0.03 to 0.3 µM | – | –
21 | O=C1CCC(N2Cc3ccc(COC(=O)Nc4cc(F)cc(Cl)c4)cc3C2=O)C(=O)N1 (stereo not drawn) [Compound 12] | 0.03 to 0.3 µM | – | –
22 | COc1ccc(Cl)cc1NC(=O)OCc1ccc2c(c1)C(=O)N(C1CCC(=O)NC1=O)C2 (stereo not drawn) [Compound 14] | > 0.3 µM | – | –
23 | O=C1CCC(N2Cc3ccc(COC(=O)Nc4cc(Cl)cc(OC5CCNC5)c4)cc3C2=O)C(=O)N1 (stereo not drawn) [Compound 20] | > 0.3 µM | – | –
24 | O=C1CCC(N2Cc3ccc(COC(=O)NC4CCCCC4)cc3C2=O)C(=O)N1 (stereo not drawn) [Compound 28] | > 0.3 µM | – | –
25 | CCOc1cc(NC(=O)OCc2ccc3c(c2)C(=O)N(C2CCC(=O)NC2=O)C3)ccc1C (stereo not drawn) [Compound 33] | 0.03 to 0.3 µM | – | –
26 | O=C1CCC(N2Cc3ccc(COC(=O)Nc4ccc5c(c4)CCC5)cc3C2=O)C(=O)N1 (stereo not drawn) [Compound 56] | 0.03 to 0.3 µM | – | –
27 | CCc1cc(NC(=O)OCc2ccc3c(c2)C(=O)N(C2CCC(=O)NC2=O)C3)cc(C)n1 (stereo not drawn) [Compound 71] | 0.03 to 0.3 µM | – | –
28 | O=C1CCC(N2Cc3ccc(COC(=O)Nc4ccc5c(c4)OC(F)(F)O5)cc3C2=O)C(=O)N1 (stereo not drawn) [Compound 79] | < 0.03 µM | ≤ 0.03 µM | –
29 | Cc1cc(NC(=O)OCc2ccc3c(c2)C(=O)N(C2CCC(=O)NC2=O)C3)cc(F)c1C (stereo not drawn) [Compound 117] | 0.03 to 0.3 µM | – | –
30 | Cc1cc(NC(=O)OCc2ccc3c(c2)C(=O)N(C2CCC(=O)NC2=O)C3)cc(C(C)(C)C)n1 (stereo not drawn) [Compound 118] | < 0.03 µM | ≤ 0.03 µM | –
31 | Cc1cc(Cl)c(NC(=O)OCc2ccc3c(c2)C(=O)N(C2CCC(=O)NC2=O)C3)cc1Cl (stereo not drawn) [Compound 119] | > 0.3 µM | – | –
32 | Cc1ccc(OC(F)(F)F)cc1NC(=O)OCc1ccc2c(c1)C(=O)N(C1CCC(=O)NC1=O)C2 (stereo not drawn) [Compound 128] | > 0.3 µM | – | –
33 | O=C1CCC(N2Cc3ccc(COC(=O)NC4COC(c5ccccc5)OC4)cc3C2=O)C(=O)N1 (stereo not drawn) [Compound 130] | > 0.3 µM | – | –
34 | O=C1CCC(N2Cc3ccc(COC(=O)Nc4cc(F)c(F)c(Cl)c4)cc3C2=O)C(=O)N1 (stereo not drawn) [Compound 132] | 0.03 to 0.3 µM | – | –
35 | O=C1CCC(N2Cc3ccc(COC(=O)Nc4cc(C(F)(F)F)ns4)cc3C2=O)C(=O)N1 (stereo not drawn) [Compound 139] | 0.03 to 0.3 µM | – | –
36 | O=C1CCC(N2Cc3ccc(COC(=O)Nc4cc(OC(F)(F)F)ccc4F)cc3C2=O)C(=O)N1 (stereo not drawn) [Compound 145, (2-(2,6-dioxopiperidin-3-yl)-3-oxoisoindolin-5-yl)methyl(2-fluoro-5-(trifluoromethoxy)phenyl)carbamate] | 0.03 to 0.3 µM | – | –
